Test [1] has as its system syncytial cell death induced by HIV infection. The conditions noted are these: inhibition of cdc2 activity; cited from earlier work.
Another test has as its system IP3 receptor. Nature of the test: IP3 receptor function in wild type and phosphorylation deficient mutant DT40 cells before and after activation. It counts as cell-based. The settings on record: phosphorylation deficient mutant, FIG. 6. The method, then: The compounds were tested on wild type DT40 cells. The phosphorylation deficient cells were generated by transfecting phosphorylation deficient IP3R mutant cDNAs into triple IP3R deficient DT40 cells. These cells express mutant IP3R with Ser421 and Thr799 replaced by alanine residues. The remaining portion of the receptor is the same as native IP3R.

The next test deals with T1, native cerebellar IP3R (Mus musculus, UniProt P11881).
T1 construct: host or cells: cerebellum
T1 sequence (P11881 whole entry): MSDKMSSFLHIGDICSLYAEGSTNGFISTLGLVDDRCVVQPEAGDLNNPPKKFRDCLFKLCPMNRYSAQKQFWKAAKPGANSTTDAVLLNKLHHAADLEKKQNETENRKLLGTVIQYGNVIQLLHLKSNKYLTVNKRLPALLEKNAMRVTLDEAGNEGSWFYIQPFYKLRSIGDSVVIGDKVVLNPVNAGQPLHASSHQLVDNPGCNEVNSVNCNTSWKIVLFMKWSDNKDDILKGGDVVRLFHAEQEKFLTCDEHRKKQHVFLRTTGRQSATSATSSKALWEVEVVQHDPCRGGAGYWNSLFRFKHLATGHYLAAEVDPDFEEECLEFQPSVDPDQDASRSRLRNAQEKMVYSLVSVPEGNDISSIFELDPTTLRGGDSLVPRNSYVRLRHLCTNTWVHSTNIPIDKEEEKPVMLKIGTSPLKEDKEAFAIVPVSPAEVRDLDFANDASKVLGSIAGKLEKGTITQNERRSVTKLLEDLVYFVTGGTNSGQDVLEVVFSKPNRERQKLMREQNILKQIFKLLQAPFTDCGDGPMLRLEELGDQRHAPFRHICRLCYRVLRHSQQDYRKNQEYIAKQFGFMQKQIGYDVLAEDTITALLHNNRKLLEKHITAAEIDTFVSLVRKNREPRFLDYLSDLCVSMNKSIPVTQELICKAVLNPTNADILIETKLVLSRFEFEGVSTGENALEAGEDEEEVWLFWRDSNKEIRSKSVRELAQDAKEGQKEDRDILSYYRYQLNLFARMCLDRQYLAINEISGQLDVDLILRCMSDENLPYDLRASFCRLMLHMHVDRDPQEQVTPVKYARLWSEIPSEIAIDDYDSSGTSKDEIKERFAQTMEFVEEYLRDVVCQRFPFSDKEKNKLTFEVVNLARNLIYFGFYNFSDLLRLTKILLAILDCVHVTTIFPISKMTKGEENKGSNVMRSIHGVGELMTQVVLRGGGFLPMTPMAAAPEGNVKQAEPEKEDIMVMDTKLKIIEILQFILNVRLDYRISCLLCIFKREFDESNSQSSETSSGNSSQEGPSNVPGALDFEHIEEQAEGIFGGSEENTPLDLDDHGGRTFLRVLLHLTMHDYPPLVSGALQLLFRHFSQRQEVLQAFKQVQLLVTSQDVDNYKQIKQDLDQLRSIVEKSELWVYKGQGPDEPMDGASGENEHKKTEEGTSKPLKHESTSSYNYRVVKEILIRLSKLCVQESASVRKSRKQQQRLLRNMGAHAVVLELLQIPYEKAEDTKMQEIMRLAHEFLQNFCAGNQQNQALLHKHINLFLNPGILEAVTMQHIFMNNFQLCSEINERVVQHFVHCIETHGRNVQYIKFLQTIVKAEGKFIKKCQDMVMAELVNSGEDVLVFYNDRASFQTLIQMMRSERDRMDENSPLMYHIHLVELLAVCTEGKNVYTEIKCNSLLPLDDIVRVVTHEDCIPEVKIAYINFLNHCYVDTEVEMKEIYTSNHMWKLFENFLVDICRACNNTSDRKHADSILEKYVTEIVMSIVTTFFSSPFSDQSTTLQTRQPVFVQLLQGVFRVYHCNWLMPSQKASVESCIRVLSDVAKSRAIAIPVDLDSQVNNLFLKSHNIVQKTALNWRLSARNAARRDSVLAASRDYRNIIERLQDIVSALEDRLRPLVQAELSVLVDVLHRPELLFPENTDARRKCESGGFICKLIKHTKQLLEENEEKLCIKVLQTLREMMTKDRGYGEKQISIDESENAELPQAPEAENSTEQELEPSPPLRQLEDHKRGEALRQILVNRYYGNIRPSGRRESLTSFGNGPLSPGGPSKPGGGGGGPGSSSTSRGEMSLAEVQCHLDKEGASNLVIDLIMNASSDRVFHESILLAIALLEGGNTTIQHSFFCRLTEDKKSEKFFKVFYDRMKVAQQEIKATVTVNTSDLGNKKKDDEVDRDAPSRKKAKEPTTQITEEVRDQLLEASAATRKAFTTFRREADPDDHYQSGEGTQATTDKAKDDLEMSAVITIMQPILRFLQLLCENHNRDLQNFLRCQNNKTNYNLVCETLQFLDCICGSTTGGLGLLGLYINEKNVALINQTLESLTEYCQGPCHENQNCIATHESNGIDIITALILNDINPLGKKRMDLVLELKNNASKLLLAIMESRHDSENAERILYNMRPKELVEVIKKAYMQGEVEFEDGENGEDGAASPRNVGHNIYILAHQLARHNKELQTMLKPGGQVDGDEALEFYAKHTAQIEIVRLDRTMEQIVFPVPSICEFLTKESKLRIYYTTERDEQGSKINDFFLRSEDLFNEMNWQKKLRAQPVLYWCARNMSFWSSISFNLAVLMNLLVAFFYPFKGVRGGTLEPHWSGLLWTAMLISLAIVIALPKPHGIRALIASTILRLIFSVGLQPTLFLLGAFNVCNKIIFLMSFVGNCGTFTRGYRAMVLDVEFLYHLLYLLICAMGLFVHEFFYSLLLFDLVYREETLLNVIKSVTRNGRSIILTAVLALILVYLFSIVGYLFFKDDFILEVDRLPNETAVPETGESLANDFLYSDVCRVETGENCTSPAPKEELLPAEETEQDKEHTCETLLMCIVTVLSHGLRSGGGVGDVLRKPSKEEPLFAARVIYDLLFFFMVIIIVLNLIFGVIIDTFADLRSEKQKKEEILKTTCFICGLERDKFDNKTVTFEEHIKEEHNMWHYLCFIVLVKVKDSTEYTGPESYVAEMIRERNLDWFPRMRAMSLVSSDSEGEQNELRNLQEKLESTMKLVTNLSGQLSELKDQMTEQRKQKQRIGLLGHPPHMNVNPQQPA
The conditions noted are these: read-out: affinity for IP3; cited from earlier work.

Test [2] deals with IP3R1 phosphorylation at Ser421 and Thr799 in DT40 cells. Nature of the test: IP3R1 phosphorylation in DT40 cells, immunoblot with αSer421 and αThr799. Type of test: cell-based. The conditions noted are these: 1 μM nocodazole, 16 h, serum-starved DT40 cells, compared to control cells. The method, then:
FIG. 4 IP3R1 phosphorylation at Ser421 and Thr799 occurs in vivo. DT40 cells were serum-starved for 24 h and cultured with and without 1 μM nocodazole (control) for 16 h in RPMI-1640 medium containing 10% FBS. After 16 h in culture, cells were washed two times with PBS, and cell lysates were resolved on 6% SDS-PAGE gels and immunoblotted with αSer^421 (A), αThr^799 (B) or αIP3R1 (C).
Cells were equalized for number and lysed in ice-cold lysis buffer containing 0.5% Nonidet P-40, 25 mM HEPES, pH 7.4, 150 mM NaCl, 1 mM EDTA, 1 mM sodium orthovanadate and protease inhibitors. Cell lysates were centrifuged at 13,000× g in a microcentrifuge, and the supernatants were subjected to immunoblotting and immunoprecipitation (Frangioni and Neal 1993; Matter, et al., 1993). The membranes were blocked in TBST (20 mM Tris/HCl, pH 7.4, 0.9% NaCl, and 0.05% Tween 20) containing 5% nonfat dried milk for 1 hr followed by incubation with primary antibodies. After extensive washings, the membranes were incubated with secondary antibody conjugated to horseradish peroxidase (goat anti-rabbit IgG; Pharmingen, Calif.) in TBST containing 5% nonfat dried milk. The immunoblots were analyzed using an ECL detection system (Amersham, Piscataway, N.J.). […] Phosphoproteins were separated by SDS-PAGE and detected by autoradiography as described (Frangioni and Neal 1993; Means 1994). […]
A general note: In western blotting, separated proteins are transferred to a membrane and probed.

Turning to `CC[C@H](CO)Nc1nc(NCc2ccccc2)c2ncn(C(C)C)c2n1` [roscovitine], the “syncytial cell death induced by HIV infection” value in test [1] is “prevented syncytial cell death”.
As to `NCCOB(c1ccccc1)c1ccccc1` [2-APB], the IP3 receptor function result in the test on IP3 receptor was “affect IP3 receptor function”.
In the case of `O=P(O)(O)O[C@@H]1[C@H](O)[C@H](O)[C@@H](OP(=O)(O)O)[C@H](OP(=O)(O)O)[C@H]1O` [IP3, inositol 1,4,5-trisphosphate], the Kd at native cerebellar IP3R was 83 nM.
As to Xestospongin, the IP3 receptor function entry in the test with IP3 receptor was “affect IP3 receptor function”.
As to `COC(=O)Nc1nc2ccc(C(=O)c3cccs3)cc2[nH]1` [Nocodazole, nocodazole], the “IP3R1 phosphorylation at both Ser421 and Thr799” value in test [2] was “greatly enhanced IP3R1 phosphorylation”.

Values taken from patent US20050119179A1, “Inositol 1, 4, 5-triphosphate receptor (type 1), phosphorylation and modulation by CDC2” (priority 2003, published 2005).
